In patent publication US10494380B2, “Nitrogen-containing tricyclic derivatives having HIV replication inhibitory activity” (priority 2015, dated 2019):
Read-outs that look alike come from different tables or passages of the source.

Columns and labels:
[1] = test system: T125A mutant virus (HIV-1 NL-432 recombinant molecular clone, IN gene); assay: HIV replication inhibition assay against integrase 124/125 mutant virus (Test Example 2); assay type: cell-based
Procedure, shortened: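 MT-4 cells (2.5×10^4 per well) infected with 60 pfu of 293T-derived HIV-1 NL-432 clone carrying integrase 124/125 point mutations, in presence of compound, cultured 4 days at 37 °C. Viability by MTT formazan at 560/690 nm; EC50 = concentration inhibiting 50% of virus-induced cytotoxicity.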

[2] = test system: HIV; assay type: cell-based; details: EC50 in the presence of human serum (25%) versus without human serum, MT-4 cells
Procedure: To confirm the influence of human serum on anti-HIV activity as necessary, human serum was added and determined EC50 in this condition. Human serum (100 μL/well) was dispensed into each anti-HIV active substance at a designated concentration dispensed 50 μL each in advance into a 96-well microtiter plate, and the plate was incubate at room temperature for 1 hour. To the serum-free plate, only culture medium (100 μL/well) was dispensed into 96-well microtiter plate. MT-4 cells (3×10^4 cells/well) was infected with 3 μL/well of HIV solution diluted to an appropriate concentration (600 pfu/50 μL) by the required number of wells and incubated at 37° C. for 1 hour. The infected cells were centrifuged at 1200 rpm for 5 minutes, the supernatant was discarded, and the infected cells were dispersed into culture medium for the required number of wells at 50 μL/well. Infected cell suspension was dispensed into a 96-well microtiter plate of which anti-HIV active substance and human serum prepared in advance. The cell mixture was mixed with a plate mixer and cultured in a CO2 incubator for 4 days. The EC50 in the presence of human serum was calculated in the same manner as in Test Example 1 and the ratio of EC50 in the presence of human serum and EC50 in the absence of human serum was calculated as the potency shift value. […]

[3] = T125A mutant virus (HIV-1 NL-432 IN gene), MT-4 cells, MTT, read-out: EC50 against T125A mutant virus
[4] = Human immunodeficiency virus 1, MT4, read-out: EC50 against T125A mutant virus, T125A mutant virus (HIV-1 NL-432 IN gene), MT-4 cells, MTT
[5] = read-out: EC50 against T125A mutant virus, T125A mutant virus (HIV-1 NL-432 IN gene), MT-4 cells, MTT

SMILES | EC50 [1, 3] | Potency shift value [2] | EC50 [1, 4] | EC50 [1, 5]
Cc1ccc(-c2c([C@H](OC(C)(C)C)C(=O)O)c(C)c3c4c2cc(C)n4CCN3CC2COC2)cc1 [Compound I-211] | 20 nM | 7.5 |  | 
Cc1ccc(-c2c([C@H](OC(C)(C)C)C(=O)O)c(C)c3c4c2cc(C)n4CCN3c2ncc(C3=CCN(C)CC3)cn2)cc1 [Compound I-212] | 6.8 nM | 3.9 |  | 
Cc1ccc(-c2c([C@H](OC(C)(C)C)C(=O)O)c(Cl)c3c4c2cc(C)n4CCN3c2nc3c(s2)CCN(C)C3)cc1 [Compound I-352] |  | 10 | 14 nM | 
Cc1ccc(-c2c([C@H](OC(C)(C)C)C(=O)O)c(C)c3c4c2cc(C)n4CCN3S(=O)(=O)CCO)cc1 [Compound I-210] | 65 nM | 5.4 |  | 
COc1ccc(N2CCn3c(C)cc4c(-c5ccc(C)cc5)c([C@H](OC(C)(C)C)C(=O)O)c(C)c2c43)nn1 [Compound I-328] |  | 4.2 | 51 nM | 
Cc1ccc(-c2c([C@H](OC(C)(C)C)C(=O)O)c(C)c3c4c2cc(C)n4CCN3c2ncc(Oc3nc4ccccc4o3)cn2)cc1 [Compound I-345] |  | 41 | 38 nM | 
COc1cnc(N2CCn3c(C)cc4c(-c5ccc(F)cc5)c([C@H](OC(C)(C)C)C(=O)O)c(C)c2c43)nc1 [Compound I-185] |  | 15 | 7.1 nM | 
Cc1c([C@H](OC(C)(C)C)C(=O)O)c(-c2ccc(Cl)cc2)c2cc(C)n3c2c1N(C(N)=S)CC3 [Compound I-166] |  | 3.5 | 62 nM | 
Cc1c([C@H](OC(C)(C)C)C(=O)O)c(-c2ccc(Cl)cc2)c2cc(C)n3c2c1N(c1ncc(C2CCOCC2)cn1)CC3 [Compound I-311] |  | 15 | 3.1 nM | 
Cc1c([C@H](OC(C)(C)C)C(=O)O)c(-c2ccc(Cl)cc2)c2cc(C)n3c2c1N(C)C1COCC13 (stereo partly drawn) [Compound I-138] |  | 5.8 |  | 1.5 nM
Cc1c([C@H](OC(C)(C)C)C(=O)O)c(-c2ccc(Cl)cc2)c2cc(C)n3c2c1N(C(=O)Nc1ccccc1N)CC3 [Compound I-218] | 20 nM | 5.5 |  | 
Cc1ccc(-c2c([C@H](OC(C)(C)C)C(=O)O)c(C)c3c4c2cc(C)n4CCN3CCN2CCCC2)cc1 [Compound I-130] |  | 2.7 | 27 nM | 
Cc1c([C@H](OC(C)(C)C)C(=O)O)c(-c2ccc(Cl)cc2)c2cc(C)n3c2c1N(c1ncc(OCCCO)cn1)CC3 [Compound I-256] |  | 10 | 5.6 nM | 
Cc1ccc(-c2c([C@H](OC(C)(C)C)C(=O)O)c(C)c3c4c2cc(C)n4CCN3c2ncc(CCN(C)C)cn2)cc1 [Compound I-337] |  | 3.6 | 28 nM | 
Cc1c([C@H](OC(C)(C)C)C(=O)O)c(-c2ccc(Cl)cc2)c2cc(C)n3c2c1N(c1nccs1)CC3 [Compound I-165] |  | 8.3 | 6.9 nM | 
Cc1c(-c2c([C@H](OC(C)(C)C)C(=O)O)c(C)c3c4c2cc(C)n4CCN3C)cc(F)c2c1CCCO2 [Compound I-159] |  | 8.8 | 16 nM | 
CNCCOc1cnc(N2CCn3c(C)cc4c(-c5ccc(C)cc5)c([C@H](OC(C)(C)C)C(=O)O)c(C)c2c43)nc1 [Compound I-224] | 79 nM | 3.3 |  | 
Cc1cc(F)c(-c2c([C@H](OC(C)(C)C)C(=O)O)c(C)c3c4c2cc(C)n4CCN3CCN(C)C)c(F)c1 [Compound I-248] |  | 1.5 | 67 nM | 
Cc1ccc(-c2c(C(OC(C)(C)C)C(=O)O)c(C#N)c3c4c2cc(C)n4CCN3C)cc1 (stereo not drawn) [Compound I-186] |  | 15 | 20 nM | 
Cc1ccc(-c2c([C@H](OC(C)(C)C)C(=O)O)c(Cl)c3c4c2cc(C)n4CCN3c2ncc(OCCN(C)C)cn2)cc1 [Compound I-350] |  | 4.3 | 22 nM | 
Cc1c([C@H](OC(C)(C)C)C(=O)O)c(-c2ccc(Cl)cc2)c2cc(C)n3c2c1N(c1ncc(O)cn1)CC3 [Compound I-183] |  | 7.6 | 31 nM | 
Cc1ccc(-c2c([C@H](OC(C)(C)C)C(=O)O)c(C)c3c4c2cc(C)n4CCN3c2ncc(CN3CCCC3)cn2)cc1 [Compound I-347] |  | 7.4 | 10 nM | 
Cc1c([C@H](OC(C)(C)C)C(=O)O)c(-c2ccc(Cl)cc2)c2cc(C)n3c2c1N(c1cccc(=O)n1C)CC3 [Compound I-219] | 43 nM | 7.6 |  | 

SMILES | EC50 [1, 3] | Potency shift value [2] | EC50 [1, 4] | EC50 [1, 5]
COCCOc1cnc(N2CCn3c(C)cc4c(-c5ccc(Cl)cc5)c([C@H](OC(C)(C)C)C(=O)O)c(C)c2c43)nc1 [Compound I-234] |  | 19 | 3.6 nM | 
Cc1ccc(-c2c([C@H](OC(C)(C)C)C(=O)O)c(F)c3c4c2cc(C)n4CCN3C)cc1 [Compound I-179] |  | 23 | 83 nM | 
Cc1ccc(-c2c([C@H](OC(C)(C)C)C(=O)O)c(C)c3c4c2cc(C)n4CCN3c2ncc(CN3CCN(C)CC3)cn2)cc1 [Compound I-349] |  | 3.6 | 30 nM | 
CCOCCN1CCn2c(C)cc3c(-c4ccc(C)cc4)c([C@H](OC(C)(C)C)C(=O)O)c(C)c1c32 [Compound I-207] | 19 nM | 8.1 |  | 
Cc1c([C@H](OC(C)(C)C)C(=O)O)c(-c2c(F)cc(F)cc2F)c2cc(C)n3c2c1N(C)CC3 [Compound I-191] |  | 7.4 | 13 nM | 
Cc1c([C@H](OC(C)(C)C)C(=O)O)c(-c2ccc(Cl)cc2)c2cc(C)n3c2c1N(c1nc2ccccc2n1C)CC3 [Compound I-242] |  | 11 | 6.4 nM | 
COc1cnc(N2CCn3c(C)cc4c(-c5ccc(C)cc5)c([C@H](OC(C)(C)C)C(=O)O)c(C)c2c43)cn1 [Compound I-275] |  | 18 | 13 nM | 
CC(=O)NCCOc1cnc(N2CCn3c(C)cc4c(-c5ccc(C)cc5)c([C@H](OC(C)(C)C)C(=O)O)c(C)c2c43)nc1 [Compound I-295] |  | 5.3 | 62 nM | 
Cc1ccc(-c2c([C@H](OC(C)(C)C)C(=O)O)c(C)c3c4c2cc(C)n4CCN3c2nc3ccccc3n2C)cc1 [Compound I-251] |  | 9.6 | 4.2 nM | 
Cc1ccc(-c2c([C@H](OC(C)(C)C)C(=O)O)c(C)c3c4c2cc(C)n4CCN3c2ncc(Oc3ccnc4ccccc34)cn2)cc1 [Compound I-340] |  | 18 | 15 nM | 
Cc1c([C@H](OC(C)(C)C)C(=O)O)c(-c2ccc(Cl)cc2)c2cc(C)n3c2c1N(C1=NCCO1)CC3 [Compound I-180] |  | 7.8 | 13 nM | 
Cc1ccc(-c2c([C@H](OC(C)(C)C)C(=O)O)c(C)c3c4c2cc(C)n4CCN3c2ncc(CCO)cn2)cc1 [Compound I-335] |  | 36 | 14 nM | 
C=Cc1cnc(N2CCn3c(C)cc4c(-c5ccc(Cl)cc5)c([C@H](OC(C)(C)C)C(=O)O)c(C)c2c43)nc1 [Compound I-299] |  | 20 | 5.1 nM | 
COc1cnc(N2CCn3c(C)cc4c(-c5ccccc5)c([C@H](OC(C)(C)C)C(=O)O)c(C)c2c43)nc1 [Compound I-231] |  | 22 | 10 nM | 
Cc1ccc(-c2c([C@H](OC(C)(C)C)C(=O)O)c(C)c3c4c2cc(C)n4CCN3c2cccc(CO)n2)cc1 [Compound I-216] | 20 nM | 9.2 |  | 
Cc1ccc(-c2c([C@H](OC(C)(C)C)C(=O)O)c(Cl)c3c4c2cc(C)n4CCN3c2ccc(C)nn2)cc1 [Compound I-354] |  | 27 | 5.3 nM | 
Cc1c([C@H](OC(C)(C)C)C(=O)O)c(-c2ccc(Cl)cc2)c2cc(C)n3c2c1N(c1ncc(-c2ccc(F)cc2)cn1)CC3 [Compound I-239] |  | 16 | 22 nM | 
Cc1c([C@H](OC(C)(C)C)C(=O)O)c(-c2ccc(Cl)cc2)c2cc(C)n3c2c1N(c1ncc(COCCN(C)C)cn1)CC3 [Compound I-315] |  | 3.9 | 80 nM | 
Cc1c([C@H](OC(C)(C)C)C(=O)O)c(-c2ccc(Cl)cc2)c2cc(C)n3c2c1N(C)CC3c1ccccc1 (stereo partly drawn) [Compound I-331] |  | 7 |  | 92 nM
Cc1c([C@H](OC(C)(C)C)C(=O)O)c(-c2ccc(Cl)cc2)c2cc(C)n3c2c1N(c1ncc(N2CCCC2)cn1)CC3 [Compound I-252] |  | 23 | 8.5 nM | 
Cc1ccc(-c2c([C@H](OC(C)(C)C)C(=O)O)c(C)c3c4c2cc(C)n4CCN3c2nc(C)ns2)cc1 [Compound I-329] |  | 15 | 19 nM | 
COCCOC(=O)Nc1cnc(N2CCn3c(C)cc4c(-c5ccc(C)cc5)c([C@H](OC(C)(C)C)C(=O)O)c(C)c2c43)nc1 [Compound I-203] | 13 nM | 30 |  | 
